According to ChEMBL document CHEMBL1201862, “PubChem BioAssay data set” (2004):
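Following 48 hours of exposure in 96-well plates, responses at five concentrations were used to interpolate endpoints linearly. GI50 marks 50% less growth.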 Active and inactive are the calls of the source. Rule as the data show it: active = GI50 up to about 1.1 µM and inactive = higher.

Assays:
Experiment in all cases: NCI anticancer screen, dose series, 48 h
RXF 393 = tested on: RXF 393
RPMI-8226 = tested on: RPMI-8226
SW-620 = tested on: SW-620
SK-OV-3 = tested on: SK-OV-3
Malme-3M = tested on: Malme-3M
786-0 = tested on: 786-0
SK-MEL-28 = tested on: SK-MEL-28
A498 = tested on: A498
HCC 2998 = tested on: HCC 2998
IGROV-1 = tested on: IGROV-1
TK-10 = tested on: TK-10
UACC-257 = tested on: UACC-257
M19-MEL = tested on: M19-MEL
DMS-273 = tested on: DMS-273
SF-295 = tested on: SF-295
OVCAR-8 = tested on: OVCAR-8
SK-MEL-2 = tested on: SK-MEL-2
A549 = tested on: A549
LOX IMVI = tested on: LOX IMVI
SNB-19 = tested on: SNB-19
SN12C = tested on: SN12C
SR = tested on: SR
SF-539 = tested on: SF-539
CAKI-1 = tested on: CAKI-1
SNB-78 = tested on: SNB-78
U-251 = tested on: U-251
COLO 205 = tested on: COLO 205
NCI-H23 = tested on: NCI-H23
SF-268 = tested on: SF-268
M14 = tested on: M14
NCI-H522 = tested on: NCI-H522
HT-29 = tested on: HT-29
OVCAR-5 = tested on: OVCAR-5
HOP-92 = tested on: HOP-92
CCRF-CEM = tested on: CCRF-CEM
HOP-62 = tested on: HOP-62
LXFL 529 = tested on: LXFL 529
KM12 = tested on: KM12
HOP-18 = tested on: HOP-18
UO-31 = tested on: UO-31
SNB-75 = tested on: SNB-75
OVCAR-4 = tested on: OVCAR-4
EKVX = tested on: EKVX
NCI-H226 = tested on: NCI-H226
DLD-1 = tested on: DLD-1
K562 = tested on: K562
UACC-62 = tested on: UACC-62
ACHN = tested on: ACHN
HCT-15 = tested on: HCT-15
OVCAR-3 = tested on: OVCAR-3
HCT-116 = tested on: HCT-116
MOLT-4 = tested on: MOLT-4
NCI-H460 = tested on: NCI-H460
DMS-114 = tested on: DMS-114
KM-20L2 = tested on: KM-20L2
SK-MEL-5 = tested on: SK-MEL-5
XF498 = tested on: XF498
HL-60 = tested on: HL-60

SMILES: Cc1cc(C)nc(/C(=N\NC(N)=O)C(=O)Nc2nc3ccc(C)cc3s2)c1
- GI50 (RXF 393): > 100 µM (inactive)
- GI50 (RPMI-8226): > 48.2 µM (inactive)
- GI50 (SW-620): > 100 µM (inactive)
- GI50 (SK-OV-3): > 100 µM (inactive)
- GI50 (Malme-3M): > 100 µM (inactive)
- GI50 (786-0): > 100 µM (inactive)
- GI50 (SK-MEL-28): > 100 µM (inactive)
- GI50 (A498): > 100 µM (inactive)
- GI50 (HCC 2998): > 100 µM (inactive)
- GI50 (IGROV-1): > 100 µM (inactive)
- GI50 (TK-10): > 100 µM (inactive)
- GI50 (UACC-257): > 100 µM (inactive)
- GI50 (M19-MEL): > 100 µM (inactive)
- GI50 (DMS-273): > 58.1 µM (inactive)
- GI50 (SF-295): > 100 µM (inactive)
- GI50 (OVCAR-8): > 100 µM (inactive)
- GI50 (SK-MEL-2): > 100 µM (inactive)
- GI50 (A549): > 100 µM (inactive)
- GI50 (LOX IMVI): > 46.6 µM (inactive)
- GI50 (SNB-19): > 100 µM (inactive)
- GI50 (SN12C): > 100 µM (inactive)
- GI50 (SR): 19.5 µM (inactive)
- GI50 (SF-539): > 100 µM (inactive)
- GI50 (CAKI-1): > 100 µM (inactive)
- GI50 (SNB-78): > 100 µM (inactive)
- GI50 (U-251): > 100 µM (inactive)
- GI50 (COLO 205): > 47.8 µM (inactive)
- GI50 (NCI-H23): > 100 µM (inactive)
- GI50 (SF-268): > 100 µM (inactive)
- GI50 (M14): > 100 µM (inactive)
- GI50 (NCI-H522): > 93.1 µM (inactive)
- GI50 (HT-29): > 77.3 µM (inactive)
- GI50 (OVCAR-5): > 100 µM (inactive)
- GI50 (HOP-92): > 100 µM (inactive)
- GI50 (CCRF-CEM): > 48.1 µM (inactive)
- GI50 (HOP-62): > 100 µM (inactive)
- GI50 (LXFL 529): > 100 µM (inactive)
- GI50 (KM12): > 100 µM (inactive)
- GI50 (HOP-18): > 100 µM (inactive)
- GI50 (UO-31): > 100 µM (inactive)
- GI50 (SNB-75): > 100 µM (inactive)
- GI50 (OVCAR-4): > 100 µM (inactive)
- GI50 (EKVX): > 100 µM (inactive)
- GI50 (NCI-H226): > 100 µM (inactive)
- GI50 (DLD-1): > 85.3 µM (inactive)
- GI50 (K562): > 61.4 µM (inactive)
- GI50 (UACC-62): > 100 µM (inactive)
- GI50 (ACHN): > 100 µM (inactive)
- GI50 (HCT-15): > 70 µM
- GI50 (OVCAR-3): > 100 µM (inactive)
- GI50 (HCT-116): > 56.5 µM (inactive)
- GI50 (MOLT-4): > 100 µM (inactive)
- GI50 (NCI-H460): > 100 µM (inactive)
- GI50 (DMS-114): > 48.5 µM (inactive)
- GI50 (KM-20L2): > 92.3 µM (inactive)
- GI50 (SK-MEL-5): > 100 µM (inactive)
- GI50 (XF498): > 100 µM (inactive)
- GI50 (HL-60): > 100 µM (inactive)

SMILES: Nc1nc(CCC(=O)Nc2cccc(C(F)(F)F)c2)cc(-c2ccc3ccccc3c2)n1
- GI50 (RXF 393): > 100 µM (inactive)
- GI50 (RPMI-8226): > 100 µM (inactive)
- GI50 (SW-620): > 100 µM (inactive)
- GI50 (SK-OV-3): > 100 µM (inactive)
- GI50 (Malme-3M): > 100 µM (inactive)
- GI50 (786-0): > 100 µM (inactive)
- GI50 (SK-MEL-28): > 100 µM (inactive)
- GI50 (A498): > 100 µM (inactive)
- GI50 (HCC 2998): > 100 µM (inactive)
- GI50 (IGROV-1): > 100 µM (inactive)
- GI50 (TK-10): > 100 µM (inactive)
- GI50 (UACC-257): > 100 µM (inactive)
- GI50 (M19-MEL): > 100 µM (inactive)
- GI50 (DMS-273): > 100 µM (inactive)
- GI50 (SF-295): > 100 µM (inactive)
- GI50 (OVCAR-8): > 100 µM (inactive)
- GI50 (SK-MEL-2): > 100 µM (inactive)
- GI50 (A549): > 100 µM (inactive)
- GI50 (SNB-19): > 100 µM (inactive)
- GI50 (SN12C): > 100 µM (inactive)
- GI50 (SR): > 100 µM (inactive)
- GI50 (SF-539): > 100 µM (inactive)
- GI50 (CAKI-1): > 100 µM (inactive)
- GI50 (SNB-78): > 100 µM (inactive)
- GI50 (U-251): > 100 µM (inactive)
- GI50 (COLO 205): > 100 µM (inactive)
- GI50 (NCI-H23): > 100 µM (inactive)
- GI50 (SF-268): > 100 µM (inactive)
- GI50 (M14): > 100 µM (inactive)
- GI50 (NCI-H522): > 100 µM (inactive)
- GI50 (HT-29): > 100 µM (inactive)
- GI50 (OVCAR-5): > 100 µM (inactive)
- GI50 (HOP-92): > 100 µM (inactive)
- GI50 (CCRF-CEM): > 100 µM (inactive)
- GI50 (HOP-62): > 100 µM (inactive)
- GI50 (LXFL 529): > 100 µM (inactive)
- GI50 (KM12): > 100 µM (inactive)
- GI50 (HOP-18): > 100 µM (inactive)
- GI50 (UO-31): > 100 µM (inactive)
- GI50 (SNB-75): > 100 µM (inactive)
- GI50 (OVCAR-4): > 100 µM (inactive)
- GI50 (EKVX): > 100 µM (inactive)
- GI50 (NCI-H226): > 100 µM (inactive)
- GI50 (DLD-1): > 100 µM (inactive)
- GI50 (K562): > 100 µM (inactive)
- GI50 (UACC-62): > 100 µM (inactive)
- GI50 (ACHN): > 100 µM (inactive)
- GI50 (HCT-15): > 100 µM
- GI50 (OVCAR-3): > 100 µM (inactive)
- GI50 (HCT-116): > 100 µM (inactive)
- GI50 (MOLT-4): > 100 µM (inactive)
- GI50 (NCI-H460): > 100 µM (inactive)
- GI50 (DMS-114): > 100 µM (inactive)
- GI50 (KM-20L2): > 100 µM (inactive)
- GI50 (SK-MEL-5): > 100 µM (inactive)
- GI50 (XF498): > 100 µM (inactive)
- GI50 (HL-60): > 100 µM (inactive)

SMILES: C=C[C@H]1C=Cc2c(OC)cccc2[C@@H]1COP1(=S)NC(C)C(c2ccccc2)O1 (some centres not stated)
- GI50 (RXF 393): 51.1 µM (inactive)
- GI50 (RPMI-8226): 27 µM (inactive)
- GI50 (SW-620): > 100 µM (inactive)
- GI50 (SK-OV-3): > 100 µM (inactive)
- GI50 (786-0): > 100 µM (inactive)
- GI50 (SK-MEL-28): > 100 µM (inactive)
- GI50 (HCC 2998): 92 µM (inactive)
- GI50 (IGROV-1): > 100 µM (inactive)
- GI50 (TK-10): > 100 µM (inactive)
- GI50 (M19-MEL): 75 µM (inactive)
- GI50 (DMS-273): 57.9 µM (inactive)
- GI50 (SF-295): > 100 µM (inactive)
- GI50 (OVCAR-8): 81.5 µM (inactive)
- GI50 (A549): 83.2 µM (inactive)
- GI50 (LOX IMVI): 17.2 µM (inactive)
- GI50 (SNB-19): > 100 µM (inactive)
- GI50 (SN12C): > 100 µM (inactive)
- GI50 (SF-539): > 100 µM (inactive)
- GI50 (SNB-78): > 100 µM (inactive)
- GI50 (U-251): 86.3 µM (inactive)
- GI50 (COLO 205): 97.3 µM (inactive)
- GI50 (NCI-H23): 50.1 µM (inactive)
- GI50 (SF-268): 62.1 µM (inactive)
- GI50 (M14): > 100 µM (inactive)
- GI50 (NCI-H522): 29.4 µM (inactive)
- GI50 (HT-29): 79.6 µM (inactive)
- GI50 (CCRF-CEM): 42 µM (inactive)
- GI50 (HOP-62): > 100 µM (inactive)
- GI50 (LXFL 529): 48.5 µM (inactive)
- GI50 (KM12): > 100 µM (inactive)
- GI50 (HOP-18): > 100 µM (inactive)
- GI50 (SNB-75): > 100 µM (inactive)
- GI50 (OVCAR-4): > 100 µM (inactive)
- GI50 (EKVX): > 100 µM (inactive)
- GI50 (NCI-H226): 67.5 µM (inactive)
- GI50 (DLD-1): > 100 µM (inactive)
- GI50 (K562): 37.1 µM (inactive)
- GI50 (UACC-62): 84.5 µM (inactive)
- GI50 (OVCAR-3): > 100 µM (inactive)
- GI50 (HCT-116): 52.8 µM (inactive)
- GI50 (MOLT-4): 33.9 µM (inactive)
- GI50 (NCI-H460): > 100 µM (inactive)
- GI50 (DMS-114): 32.9 µM (inactive)
- GI50 (KM-20L2): > 100 µM (inactive)
- GI50 (SK-MEL-5): 44.2 µM (inactive)
- GI50 (XF498): > 100 µM (inactive)
- GI50 (HL-60): 18.9 µM (inactive)
